Reference: patent US20190290623A1, “USE OF TIOTROPIUM BROMIDE TO PREVENT PULMONARY OXYGEN TOXICITY” (priority 2018, published 2019)
Entries after “also recorded” stand apart in the source; their conditions may differ.

Tests used:
Type in all cases: in vivo
[1] = tested on: swine exposed to 2.5 ATA hyperbaric oxygen for 5.5 hr; assay: Experiment 2 deep exposure simulation: pulmonary capacity (pressure-volume loops); conditions: 2.5 ATA O2 5.5 hr
Method: (§1) Experiment 2 is designed to evaluate the efficacy of tiotropium bromide pre-dive with respect to reducing decrements in pulmonary function due to PO2T following a 5.5 hour, 2.5 ATA hyperbaric oxygen exposure. This dive profile was selected because it caused the most significant pulmonary function deficits in humans with minimal risk of seizure due to CNS oxygen toxicity.
Pulmonary function testing: The swine had disposable prewired electrodes adhered to the dermis over the gluteal muscle and a train of four (TOF) stimulation was initiated to confirm proper placement and twitch using a DigiStim III Peripheral Nerve Stimulator (Neuro Technology Inc., Kerrville, Tex.). Atracurium besylate (50 mg, IV) (hospira, Lake Forest, Ill.) was injected into the ear vein catheter, and the swine was observed until cessation of muscle twitch with TOFs. The swine was then disconnected from the ventilator circuit, allowed to passively exhale, and connected to an O2 filled 3 L super syringe (Hamilton Company, Reno, Nev.) attached to a pressure gauge (OMEGA®, Norwalk, Conn.), and pneumotachometer (Harvard Apparatus, Holliston, Mass.). Oxygen was introduced in 100 ml increments every 3 seconds until a static pressure of 40 cm H2O was reached. The lungs were then deflated in 100 ml increments until a static pressure of −40 cm H2O. The swine was then reconnected to the ventilator and ventilated for 2 minutes before repeating the insufflation and exhalation maneuvers and measurements one more time. […] After the above measurements, swine received either nebulized Tiotropium (18 μg dissolved in saline) or an equal volume of 0.9% saline through the breathing circuit over the course of 15 minutes. The propofol infusion was then stopped, the animals were then monitored until a swallow reflex was observed then extubated. The swine were then transported to the hyperbaric chamber suite and allowed to recover until capable of standing.
Hyperbaric Exposures: Individual animals were then placed into a Plexiglas box (30 in.×42 in.×38 in., manufactured in-house) within a Multiple Large Animal Chamber (MLAC), which is a steel-hulled hyperbaric chamber (450-cubic ft. floodable volume and pressure tested to 1,230 feet of seawater [fsw] equivalent) (Bethlehem Steel Corp, Bethlehem Pa.). Pressure/depth was monitored by a CPG 2500 Digital Pressure Gauge (Mensor Corp., San Marcos, Tex.). Swine were dove in pairs with each treatment group represented. Swine box assignment was alternated with respect to treatment to avoid any effects associated with individual box environmental features. Animals were monitored via closed-circuit television to observe signs of distress related to middle ear barotrauma (e.g. head shaking, nystagmus) and seizure activity. Oxygen concentration was measured and recorded using a portable O2 analyzer (Teledyne Analytical Inst, City of Industry, Calif.). After positioning the animal inside the Plexiglas box, the MLAC was sealed and pressurized using air at the rate of I ATA/minute to a depth of 2.5 ATA. After 2.5 min at a bottom depth equivalent to 2.5 ATA, the breathing gas was switched to 100% O2 and maintained for 5.5 Hrs. After completing 5.5 Hrs on 100% O2, the inspired gas was switched back to air for 3 min. Then, the chamber was decompressed at 1 ATA/minute. Upon reaching surface the animal was transported to the surgical suite for post-dive ECG and pulmonary function measurements (identical to the pre-dive procedures). The animal was then euthanized via ear vein infusion of Euthasol (1.0-1.5 ml/10 lbs body weight) followed by a saline flush (5 cc).
Pulmonary function data analysis: Pressure and flow data from the pressure gauge and pneumotachometer respectively were collected by a Dell Laptop (Round Rock, Tex.) and an analog-digital converter card (PCI-6052E, National Instruments, Austin, Tex.) with 16 bit resolution and 200 Hz sampling rate running Labchart 8.0. […]

[2] = tested on: swine exposed to 1.5 ATA hyperbaric oxygen for 17.5 hr; assay: Experiment 1 shallow exposure simulation: Impulse Oscillometry (IOS); conditions: 1.5 ATA O2 17.5 hr, 18 mcg nebulized pre-dive, post-dive normalized to baseline, n=7/arm
Method: Experiment 1 is designed to evaluate the efficacy of tiotropium bromide administered pre-dive in reducing decrements in pulmonary function due to PO2T following a 17.5 hour, 1.5 ATA hyperbaric oxygen exposure. This dive profile was selected because it was of sufficient duration to elicit persistent pulmonary function decrement in humans.
The swine were anesthetized with propofol (20 cc, I.V. target, adjusted as needed to optimize sedation), intubated and ventilated. Anesthetized swine were shaved, then ECG and EEG electrodes were placed. Animals were then paralyzed with Atracurium Besylate (50 mg, IV) for accurate pulmonary function measurements of quasi-static and dynamic compliance.
Following baseline pulmonary function measurements, the swine were randomized to receive equivalent volumes of normal saline or tiotropium bromide (18 mcg) via nebulizer. The swine were then ventilated until muscle tone was regained. […]
Next, the swine were switched to 100% oxygen breathing gas and remained at 1.5 ATA for 17.5 hr. […] When fully sedated, the swine were ventilated, paralyzed with Atracurium Besylate, and post-dive measurements of pulmonary function were recorded. During all phases of study the swine were continuously monitored for signs of seizure or distress. […]

[3] = tested on: swine exposed to 2.5 ATA hyperbaric oxygen for 5.5 hr; assay: Experiment 2 deep exposure simulation: Impulse Oscillometry (IOS); conditions: 2.5 ATA O2 5.5 hr, post-dive normalized to baseline, n=6/arm
Method: as §1
Hyperbaric Exposures: Individual animals were then placed into a Plexiglas box (30 in.×42 in.×38 in., manufactured in-house) within a Multiple Large Animal Chamber (MLAC), which is a steel-hulled hyperbaric chamber (450-cubic ft. floodable volume and pressure tested to 1,230 feet of seawater [fsw] equivalent) (Bethlehem Steel Corp, Bethlehem Pa.). Pressure/depth was monitored by a CPG 2500 Digital Pressure Gauge (Mensor Corp., San Marcos, Tex.). Swine were dove in pairs with each treatment group represented. Swine box assignment was alternated with respect to treatment to avoid any effects associated with individual box environmental features. Animals were monitored via closed-circuit television to observe signs of distress related to middle ear barotrauma (e.g. head shaking, nystagmus) and seizure activity. Oxygen concentration was measured and recorded using a portable O2 analyzer (Teledyne Analytical Inst, City of Industry, Calif.). […]

C[N+]1(C)[C@@H]2C[C@@H](OC(=O)C(O)(c3cccs3)c3cccs3)C[C@H]1[C@@H]1O[C@@H]12 [Tiotropium, tiotropium bromide]
change in VC following hyperbaric exposure ([1]; 1st set of measurements): no change
decrease in IC following hyperbaric exposure ([1]; 1st set of measurements, n=7, p=0.2217, mean ± SEM): 57.14 ± 34.11 mL
increase in ERV following hyperbaric exposure ([1]; 1st set of measurements, n=7, p=0.6315, mean ± SEM): 57.14+62.65 ml
increase in VC following hyperbaric exposure ([1]; 2nd set of measurements, n=9, mean ± SEM): 22.22+52.69 ml
increase in ERV following hyperbaric exposure ([1]; 2nd set of measurements, n=9, p=0.4806, mean ± SEM): 44.44 ± 39.49 mL
decrease in IC following hyperbaric exposure ([1]; 2nd set of measurements, n=9, p=0.5300, mean ± SEM): 33.33 ± 31.94 mL
Inspiratory capacity, Saline vs Tiotropium groups ([1]; percent change from baseline, averaged, p=0.266): no significant differences
Vital Capacity, Saline vs Tiotropium groups ([1]; percent change from baseline, averaged, p=0.325): no significant differences
Expiratory Reserve Volume, Saline vs Tiotropium groups ([1]; percent change from baseline, averaged, p=0.900): no significant differences
IOS resistance, Tiotropium treated animals vs saline controls ([2]; p=0.172): no significant differences
IOS reactance, Tiotropium treated animals vs saline controls ([2]; p=0.65): no significant differences
IOS resistance in saline treated controls when compared to Tiotropium treated swine ([3]; all frequencies, p=0.0421): significant decrease in resistance
IOS reactance in saline treated controls when compared to Tiotropium treated swine ([3]; p=0.0587): decrease in reactance which approached significance; also recorded: decrease in reactance, which approached significance
